Test results reported in the supplement of paper PMC10307832.

Columns and labels:
Assay in all cases: relative viability (nuclei count vs DMSO), 5 days (fraction); higher = more cells survive
[1] = compound: O=C(CCCCCCC(=O)Nc1ccccc1)NO [Vorinostat] + CCNC(=O)c1noc(-c2cc(C(C)C)c(O)cc2O)c1-c1ccc(CN2CCOCC2)cc1 [Luminespib] (partner 0.01 µM)
Procedure, shortened: (§1)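 Cells from lung cancer lines were seeded into 1536-well plates and, one day later, dosed by pin tool. Treatments were either a single drug or a fixed dose of an anchor drug with five library-drug doses (not always all listed) in √10 steps. After 5 days, nuclei were stained in a one-step fixation (final 0.05% Triton X-100, 1% formaldehyde, 1 ug/ml Hoechst) and counted on 4× images, and relative viability is the treated-to-vehicle nuclei ratio, as the median of duplicate plates.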

[2] = compound: O=C(CCCCCCC(=O)Nc1ccccc1)NO [Vorinostat] + COc1cccc2cc(-c3nc([C@H]4CC[C@H](C(=O)O)CC4)n4ncnc(N)c34)[nH]c12 [OSI-027] (partner 0.5 µM)
Procedure, shortened: as §1

[3] = compound: O=C(CCCCCCC(=O)Nc1ccccc1)NO [Vorinostat] + CS(=O)(=O)N1CCN(Cc2cc3nc(-c4cccc5[nH]ncc45)nc(N4CCOCC4)c3s2)CC1 [Pictilisib] (partner 1 µM)
Procedure, shortened: as §1

[4] = compound: O=C(CCCCCCC(=O)Nc1ccccc1)NO [Vorinostat] + N=C(N)NC(=N)NCCc1ccccc1 [Phenformin] (partner 250 µM)
Procedure, shortened: as §1

[5] = compound: O=C(CCCCCCC(=O)Nc1ccccc1)NO [Vorinostat] + O=C(c1cc(Cc2n[nH]c(=O)c3ccccc23)ccc1F)N1CCN(C(=O)C2CC2)CC1 [Olaparib] (partner 8 µM)
Procedure, shortened: as §1

Cell Line | relative viability ([1]; first compound 0.253 µM) | relative viability ([1]; first compound 0.8 µM) | relative viability ([1]; first compound 2.53 µM) | relative viability ([1]; first compound 8 µM) | relative viability ([2]; first compound 0.253 µM) | relative viability ([2]; first compound 0.8 µM) | relative viability ([2]; first compound 2.53 µM) | relative viability ([2]; first compound 8 µM) | relative viability ([3]; first compound 0.253 µM) | relative viability ([3]; first compound 0.8 µM) | relative viability ([3]; first compound 2.53 µM) | relative viability ([3]; first compound 8 µM) | relative viability ([4]; first compound 0.253 µM) | relative viability ([4]; first compound 0.8 µM) | relative viability ([4]; first compound 2.53 µM) | relative viability ([4]; first compound 8 µM) | relative viability ([5]; first compound 0.253 µM) | relative viability ([5]; first compound 0.8 µM) | relative viability ([5]; first compound 2.53 µM) | relative viability ([5]; first compound 8 µM)
ABC-1 | 1.19 | 0.284 | 0.239 | 0.187 | 0.491 | 0.352 | 0.159 | 0.102 | 0.981 | 0.509 | 0.168 | 0.118 | 0.254 | 0.307 | 0.183 | 0.156 | 1.02 | 1.3 | 0.78 | 0.196
SK-LU-1 | 0.21 | 0.234 | 0.176 | 0.196 | 0.407 | 0.377 | 0.204 | 0.116 | 0.595 | 0.55 | 0.351 | 0.133 | 0.658 | 0.549 | 0.285 | 0.123 | 0.417 | 0.399 | 0.323 | 0.14
NCI-H322M | 1.25 | 1.11 | 0.731 | 0.28 | 0.584 | 0.502 | 0.32 | 0.235 | 0.537 | 0.541 | 0.386 | 0.317 | 0.94 | 0.761 | 0.452 | 0.284 | 0.9 | 0.873 | 0.498 | 0.386
NCI-H1355 | 0.894 | 0.681 | 0.383 | 0.184 | 0.442 | 0.309 | 0.228 | 0.164 | 0.556 | 0.329 | 0.244 | 0.165 | 0.471 | 0.411 | 0.333 | 0.179 | 0.797 | 0.565 | 0.211 | 0.128
EPLC-272H | 0.497 | 0.195 | 0.273 | 0.158 | 0.272 | 0.228 | 0.175 | 0.147 | 0.309 | 0.227 | 0.212 | 0.145 | 0.321 | 0.332 | 0.104 | 0.084 | 0.827 | 0.565 | 0.2 | 0.13
A-427 | 1.03 | 0.892 | 0.339 | 0.158 | 0.535 | 0.281 | 0.226 | 0.105 | 0.65 | 0.595 | 0.586 | 0.153 | 0.389 | 0.396 | 0.229 | 0.139 | 0.71 | 0.789 | 0.468 | 0.21
BEN | 0.454 | 0.176 | 0.223 | 0.0986 | 0.287 | 0.24 | 0.0754 | 0.0473 | 0.659 | 0.332 | 0.132 | 0.0393 | 0.297 | 0.215 | 0.146 | 0.0911 | 1.15 | 0.791 | 0.281 | 0.1
LCLC-103H | 0.987 | 0.939 | 0.185 | 0.145 | 0.545 | 0.502 | 0.429 | 0.143 | 0.794 | 0.55 | 0.306 | 0.211 | 0.322 | 0.332 | 0.267 | 0.151 | 0.844 | 0.737 | 0.413 | 0.247
